Legend:
Carbonic anhydrase 9 = Carbonic anhydrase 9 (Homo sapiens, UniProt Q16790); test: Inhibition of human carbonic anhydrase 9 after 6 hrs by stop-flow CO2 hydration assay
Carbonic anhydrase 2 = Carbonic anhydrase 2 (Homo sapiens, UniProt P00918); test: Inhibition of human carbonic anhydrase 2 after 6 hrs by stop-flow CO2 hydration assay
Carbonic anhydrase 12 = Carbonic anhydrase 12 (Homo sapiens, UniProt O43570); test: Inhibition of human carbonic anhydrase 12 after 6 hrs by stop-flow CO2 hydration assay
Carbonic anhydrase 1 = Carbonic anhydrase 1 (Homo sapiens, UniProt P00915); test: Inhibition of human carbonic anhydrase 1 after 6 hrs by stop-flow CO2 hydration assay
Chain of Carbonic anhydrase 1 (P00915 whole entry): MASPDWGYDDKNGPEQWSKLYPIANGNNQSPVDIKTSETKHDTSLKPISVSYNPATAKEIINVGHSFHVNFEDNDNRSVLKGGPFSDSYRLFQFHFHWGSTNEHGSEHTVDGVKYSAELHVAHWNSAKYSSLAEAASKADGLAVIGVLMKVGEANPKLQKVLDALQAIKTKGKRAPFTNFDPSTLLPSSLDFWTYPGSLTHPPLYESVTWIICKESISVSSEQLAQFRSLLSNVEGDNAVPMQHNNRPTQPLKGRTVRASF

Chain of Carbonic anhydrase 12 (O43570 whole entry): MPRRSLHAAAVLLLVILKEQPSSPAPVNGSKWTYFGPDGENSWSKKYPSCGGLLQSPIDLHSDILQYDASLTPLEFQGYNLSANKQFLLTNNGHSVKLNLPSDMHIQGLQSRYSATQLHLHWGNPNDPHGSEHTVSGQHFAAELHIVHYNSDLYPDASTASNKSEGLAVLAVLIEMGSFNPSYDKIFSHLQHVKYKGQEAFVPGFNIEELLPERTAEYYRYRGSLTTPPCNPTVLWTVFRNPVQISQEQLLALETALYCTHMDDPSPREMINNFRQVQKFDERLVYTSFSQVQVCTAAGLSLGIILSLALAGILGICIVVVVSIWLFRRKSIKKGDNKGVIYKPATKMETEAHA

| Compound | Ki (Carbonic anhydrase 9) [µM] | Ki (Carbonic anhydrase 2) [µM] | Ki (Carbonic anhydrase 12) [µM] | Ki (Carbonic anhydrase 1) [µM] |
| --- | --- | --- | --- | --- |
| C=CCOc1ccc2oc(=O)ccc2c1 | 0.93 | > 200 | – | – |
| CC(C)(C)[Si](C)(C)Oc1ccc2oc(=O)ccc2c1 | 0.8 | – | – | – |
| CC(C)(C)[Si](C)(C)Oc1ccc2oc(=S)ccc2c1 | 0.86 | > 200 | – | – |
| CC(C)(C)[Si](C)(C)Oc1ccc2ccc(=S)oc2c1 | 0.96 | > 200 | – | – |
| C=CCOc1ccc2oc(=S)ccc2c1 | 3.26 | – | – | – |
| C=CCOc1ccc2ccc(=S)oc2c1 | 3.23 | > 200 | – | – |
| C=CCOc1cc(=S)oc2ccccc12 | – | > 200 | – | – |
| Cc1ccc(S(=O)(=O)OCCOc2ccc3ccc(=O)oc3c2)cc1 | 0.53 | > 200 | – | – |
| O=c1ccc2ccc(OCCF)cc2o1 | 0.68 | > 200 | – | – |
| Cc1cc(C)cc(NC(=O)Nc2ccc3c(C)cc(=O)oc3c2)c1 | – | > 200 | – | – |
| Cc1cc(=O)oc2cc(NC(=O)OC(C)(C)C)ccc12 | 0.97 | > 200 | – | – |
| C=CCOc1ccc2ccc(=O)oc2c1 [7-ALLYLOXYCOUMARIN] | 0.73 | > 200 | 0.64 | 72.9 |

Results, then the compound that gave them:

| Ki (Carbonic anhydrase 9) [µM] | Ki (Carbonic anhydrase 2) [µM] | Ki (Carbonic anhydrase 12) [µM] | Ki (Carbonic anhydrase 1) [µM] | Compound |
| --- | --- | --- | --- | --- |
| 0.39 | > 200 | – | – | CC(=O)Nc1ccc2c(C)cc(=O)oc2c1 |
| 0.78 | > 200 | – | – | Oc1ccc2ccc(=S)oc2c1 |
| 0.8 | – | – | – | Oc1ccc2oc(=S)ccc2c1 |
| 0.21 | > 200 | – | – | C=CCOc1cc(=O)oc2ccccc12 |
| 0.92 | > 200 | – | – | O=c1ccc2ccc(OCCO)cc2o1 |

From ChEMBL document CHEMBL1955798, “Novel coumarins and 2-thioxo-coumarins as inhibitors of the tumor-associated carbonic anhydrases IX and XII” (Bioorg Med Chem, 2012)
